Key:
HIV-1LAI [1] = test: Inhibition of HIV infection of human PBMCs (infectious virus production, read out on LC5-RIC cells); assay type: cell-based; settings: mean ± SD
Protocol: To evaluate anti-HIV efficacies of test compounds in primary human target cells, stimulated PBMCs were seeded in 96-well plates at a density of 500,000 cells per well, different #7concentrations of the compound (serial dilutions) and virus inoculum (MOI of 0.5) added to the PBMCs and cultures incubated for 48 h. Infectious virus production was quantified by transferring 35 µl of supernatant from the PBMC cultures to LC5-RIC cells, seeded in black 96-well plates one day earlier. LC5-RIC cultures were then incubated for 72 h and analysed for DsRed1 reporter expression and anti-HIV activity calculated as described for the EASY-HIT assay.

[2] = system: HIV-1 transcripts (unspliced, singly spliced, multiply spliced, all); test: Relative levels of HIV-1 transcript classes by qRT-PCR in LC5-RIC cells; assay type: cell-based; settings: HIV-1LAI, 48 h, vs untreated
Protocol: LC5-RIC cells were plated, treated with compounds and inoculated with virus as described for Alu-PCR above. Cells were then harvested and RNA was extracted using the RNeasy Mini Kit (QIAGEN), according to the manufacturer’s protocol. For cDNA synthesis, 1 µg of total RNA was reverse transcribed by SuperScript II reverse transcriptase (Invitrogen) according to manufacturer’s recommendations. qRT-PCR was performed with the Roche Light Cycler® 480II 96 (Version 1.5.0.39), using LightCycler® 480 SYBR Green I Mastermix (Roche). Quantitative PCR for HIV-1 transcripts was performed with primers specific for unspliced, singly spliced or multiply spliced HIV-1 transcripts as well as for ‘all HIV transcripts’; RNA Polymerase II transcripts were analysed as internal reference gene. Primer sequences are given in Supplementary Methods and binding sites shown in Supplementary Fig. S3. Data was analysed with the second derivative maximum method. The relative amount of HIV-1 transcripts in treated versus untreated samples was calculated by the 2^(−ΔΔCt) method, using RNA polymerase II as reference gene.
The following primers were used to perform the qRT-PCR analysis (primer sequences 5’ ? 3’): multiply spliced, forward: ATGGAGCCAGTAGATCCTAG, reverse: AGT CTC TCA AGC GGT GGT ^1; singly spliced, forward: GGc GGC GAC TGG AAG AGG C, reverse: CTATGATTACTATGGACCACA ^1; unspliced, forward: CTG AAG CGC GCA CGG CAA, reverse: GACGCTCTCGCACCCATCTC ^1; ‘all HIV transcripts’, forward: GTGTGTGGTAGATCCACAGATCAAGG, reverse: CCAGTCACACCTCAGGTACCTTTAAGACC ^2; RNA polymerase II, forward: GCA CCA CGT CCA ATG ACA T, reverse: GTG CGG CTG CTT CCA TAA ^3. See primer binding sites in different HIV transcripts in Fig. S1.

[3] = CellTiter-Glo 2.0 cell viability assay in LC5-RIC cells; assay type: cell-based; settings: human; Table S2; CellTiter-Glo 2.0; mean ± SD
Protocol: (§1) The following assays were used to profile cell safety of compound treatment in HIV-exposed cultures (LC5-RIC or PBMC): (1) CellTox^TM Green Cytotoxicity Assay, Promega, measures binding of a fluorescent dye to DNA of cells with impaired membrane integrity; (2) CellTiter-Glo® 2.0 Assay, Promega, which measures the amount of ATP in viable cells after lysis using an assay with luminescence read-out. Cells were plated into black 96-well plates followed by overnight incubation at 37 °C, 5% CO2. Compounds dissolved in DMSO were screened at multiple concentrations from 0.6 to 10,000 nM at a final DMSO concentration of 0.04% followed by additional 48 h incubation. Both assays were performed according to manufacturer’s recommendations and consecutively in the above mentioned order. Cells were washed once with PBS between the assays.

[4] = CellTiter-Glo 2.0 cell viability assay in PBMC; assay type: cell-based, human; settings: human
Protocol: as §1

[5] = system: integrated proviral HIV-1 DNA; test: Integrated proviral HIV-1 DNA by Alu-PCR in LC5-RIC cells; assay type: cell-based; settings: HIV-1LAI, 48 h, concentrations >2x IC90, normalized to DMSO
Protocol: Quantitative analysis of integrated copies of HIV proviral DNA by Alu-PCR was performed essentially as described in[46]. Briefly, LC5-RIC cells seeded at a density of 100,000 cells per well in 12-well plates and incubated for 24 h were exposed to test compounds and HIV-1LAI virus inoculum at an MOI of 0.5 and incubated for further 48 h at 37 °C, 5% CO2. Subsequently, cells were harvested and genomic DNA (gDNA) was extracted using the QIAamp DNA Mini Kit (QIAGEN) according to the manufacturer’s protocol. The relative amount of integrated proviral HIV-1 DNA was determined by two-step Alu-PCR[46]. The relative amounts of integrated proviral HIV-1 DNA in treated versus untreated samples were calculated by the 2^(−ΔΔCt) method, with ΔCT values representing CT (HIV) - CT (β-globin) for each sample and ΔΔCT values representing values of treated samples normalized to untreated samples.

HIV-1LAI [6] = test: EASY-HIT assay: infectious virus production by LC5-RIC reporter cells exposed to HIV-1LAI; assay type: cell-based; settings: for Infectious virus production, median (fluorescent signal normalized to untreated virus-exposed cultures): 50 nM, LC5-RIC, secondary plates 72 h after transfer
Protocol: To identify natural compounds with anti-HIV activity we screened a collection of 10,000 natural compounds: Anti-HIV activity was evaluated by determining compound effects on infectious virus production by LC5-RIC cells which are highly susceptible for HIV and contain a DsRed1-encoding reporter gene activated by HIV-infection[6]–[8]. For screening, cultures of LC5-RIC reporter cells were first exposed to virus in the presence of the compound (first-step of the assay). Subsequently, supernatants of these cultures were transferred to secondary plates with uninfected LC5-RIC cells. The fluorescent signal of the cultures in the secondary plates served as a measure of compound effects on infectious virus production.
Anti-HIV activities of compounds were profiled in LC5-RIC cells with the EASY-HIT assay as described in[6]. Briefly, LC5-RIC cells were first exposed to virus and compounds (first step of the assay). Compound effects on infectious virus production were determined by transferring aliquots of supernatants of compound-treated cultures to secondary plates and measurement of fluorescent signal intensities in secondary plates after 72 h (second step of the assay). Fluorescent signal intensities determined for compound-treated cultures were normalized to those determined for untreated virus-exposed cultures.

SMILES	IC50 (HIV-1LAI [1]; Human immunodeficiency virus 1, Table S2, PBMC, read-out: Anti-HIV in PBMC, IC50) [nM]	relative levels of multiply spliced HIV transcripts [2]	CC50 at 48 h [3] [nM]	CC50 at 48 h [4] [nM]	reduction of levels of integrated proviral DNA [5]	Infectious virus production, median (fluorescent signal normalized to untreated virus-exposed cultures) (HIV-1LAI [6])	IC50 (HIV-1LAI [6]; Human immunodeficiency virus 1, read-out: Anti-HIV in LC5-RIC, IC50) [nM]	IC90 (HIV-1LAI [1]; Human immunodeficiency virus 1, PBMC, read-out: IC90, 90% HIV-inhibitory concentration, human PBMCs exposed to HIV-1LAI) [nM]	IC50 (HIV-1LAI [1]; Human immunodeficiency virus 1, PBMC, human PBMCs exposed to HIV-1LAI, read-out: IC50, half maximal HIV-inhibitory concentration) [nM]	IC90 (HIV-1LAI [1]; read-out: IC90, 90% HIV-inhibitory concentration, human PBMCs exposed to HIV-1LAI) [nM]	levels of singly spliced HIV transcripts [2]	levels of unspliced HIV transcripts [2]	overall abundance of HIV mRNAs (all transcripts primers) [2]	CC50 at 48 h ([4]; CellTiter-Glo 2.0, PBMC, read-out: Cell viability in PBMC, CC50) [nM]	IC90 (HIV-1LAI [6]; Human immunodeficiency virus 1, read-out: IC90, 90% inhibitory concentration) [nM]	IC50 (HIV-1LAI [6]; LC5-RIC cells exposed to HIV-1LAI, infectious virus production, mean ± SD, listed as #7, read-out: IC50, half maximal inhibitory concentration) [nM]	IC50 (HIV-1LAI [6]; LC5-RIC cells exposed to HIV-1LAI, infectious virus production, mean ± SD, read-out: IC50, half maximal inhibitory concentration) [nM]
CN1CC[C@H](c2c(O)cc(O)c3c(=O)cc(-c4ccccc4Cl)oc23)[C@H](O)C1 [Flavopiridol]	35.6 ± 3.46	much stronger inhibitory effect on levels of multiply spliced transcripts than compound #7	127.4 ± 0.94	120 ± 13.5	did not reveal reduction of proviral DNA levels	10.38	10.9 ± 0.5	–	–	–	–	–	–	–	–	–	–
COc1oc(C2C/C(=C/C(C)=C/c3ccc(C(F)(F)F)cc3)CO2)c(C)c(=O)c1C (stereo not drawn) [compound #7]	–	did not reduce relative levels of multiply spliced transcripts	> 10000	–	< 20%	0.96	–	< 45	10.3 ± 0.65	41 ± 1.23	strongly diminished	strongly diminished	reduced the overall abundance of HIV mRNAs	> 10000	13.4 ± 1.75	< 10	4.9 ± 0.16

— publication PMC6987146, “Potent inhibition of HIV replication in primary human cells by novel synthetic polyketides inspired by Aureothin” (Scientific Reports, 2020)
